Measurements published in PubChem BioAssay (NCI).
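Grown in 96-well plates, cells were treated for 48 hours with each compound at five concentrations. Insufficient inhibition: endpoint recorded as highest concentration tested. The concentration for 50% growth inhibition is given as GI50. TGI: concentration producing complete growth inhibition.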

Columns and labels:
Assay in all cases: DTP human tumour cell line panel, 48 h
OVCAR-5 ovarian = tested on: OVCAR-5 ovarian
MOLT-4 leukemia = tested on: MOLT-4 leukemia
SK-MEL-28 melanoma = tested on: SK-MEL-28 melanoma
HCT-116 colon = tested on: HCT-116 colon
SF-268 CNS = tested on: SF-268 CNS
SN12C renal = tested on: SN12C renal
UACC-257 melanoma = tested on: UACC-257 melanoma
MDA-MB-468 breast = tested on: MDA-MB-468 breast
MALME-3M melanoma = tested on: MALME-3M melanoma
SK-OV-3 ovarian = tested on: SK-OV-3 ovarian
NCI-H23 lung = tested on: NCI-H23 lung
U251 CNS = tested on: U251 CNS
SK-MEL-5 melanoma = tested on: SK-MEL-5 melanoma
ACHN renal = tested on: ACHN renal
IGROV1 ovarian = tested on: IGROV1 ovarian
HS 578T breast = tested on: HS 578T breast
SK-MEL-2 melanoma = tested on: SK-MEL-2 melanoma
SNB-75 CNS = tested on: SNB-75 CNS
KM12 colon = tested on: KM12 colon
MDA-MB-231 breast = tested on: MDA-MB-231 breast
RPMI-8226 leukemia = tested on: RPMI-8226 leukemia
HOP-92 NSCLC = tested on: HOP-92 NSCLC
SNB-19 CNS = tested on: SNB-19 CNS
UACC-62 melanoma = tested on: UACC-62 melanoma
PC-3 prostate = tested on: PC-3 prostate
T-47D breast = tested on: T-47D breast
OVCAR-4 ovarian = tested on: OVCAR-4 ovarian
K-562 leukemia = tested on: K-562 leukemia
RXF 393 renal = tested on: RXF 393 renal
SW-620 colon = tested on: SW-620 colon
NCI-H522 lung = tested on: NCI-H522 lung
TK-10 renal = tested on: TK-10 renal
OVCAR-3 ovarian = tested on: OVCAR-3 ovarian
M14 melanoma = tested on: M14 melanoma
SR leukemia = tested on: SR leukemia
CAKI-1 renal = tested on: CAKI-1 renal
SF-295 CNS = tested on: SF-295 CNS
LOX IMVI melanoma = tested on: LOX IMVI melanoma
DU-145 prostate = tested on: DU-145 prostate
HOP-62 NSCLC = tested on: HOP-62 NSCLC
MDA-MB-435 = tested on: MDA-MB-435
NCI-H460 lung = tested on: NCI-H460 lung
UO-31 renal = tested on: UO-31 renal
A549 NSCLC = tested on: A549 NSCLC
HL-60(TB) leukemia = tested on: HL-60(TB) leukemia
SF-539 CNS = tested on: SF-539 CNS
786-0 renal = tested on: 786-0 renal
NCI/ADR-RES ovarian = tested on: NCI/ADR-RES ovarian
HCT-15 colon = tested on: HCT-15 colon
A498 renal = tested on: A498 renal
CCRF-CEM leukemia = tested on: CCRF-CEM leukemia
HCC-2998 colon = tested on: HCC-2998 colon
COLO 205 colon = tested on: COLO 205 colon
MCF7 breast = tested on: MCF7 breast
EKVX NSCLC = tested on: EKVX NSCLC
BT-549 breast = tested on: BT-549 breast
OVCAR-8 ovarian = tested on: OVCAR-8 ovarian
NCI-H226 lung = tested on: NCI-H226 lung
HT29 colon = tested on: HT29 colon

Question: What does the source list for O=C(CSc1nnc(-c2ccc(-c3nc4ccc(Cl)cc4[nH]3)cc2)o1)Nc1ccc(Br)cc1?
Answer: GI50 (OVCAR-5 ovarian): 3.71 µM; TGI (OVCAR-5 ovarian): 17.5 µM; GI50 (MOLT-4 leukemia): 2.99 µM; TGI (MOLT-4 leukemia): 14.2 µM; GI50 (SK-MEL-28 melanoma): 1.77 µM; TGI (SK-MEL-28 melanoma): 3.81 µM; GI50 (HCT-116 colon): 3.22 µM; TGI (HCT-116 colon): 14.4 µM; GI50 (SF-268 CNS): 3.45 µM; TGI (SF-268 CNS): 16.8 µM; GI50 (SN12C renal): 1.74 µM; TGI (SN12C renal): 4.09 µM; GI50 (UACC-257 melanoma): 2.97 µM; TGI (UACC-257 melanoma): 12.8 µM; GI50 (MDA-MB-468 breast): 2.66 µM; TGI (MDA-MB-468 breast): 9.97 µM; GI50 (MALME-3M melanoma): 1.94 µM; TGI (MALME-3M melanoma): 4.84 µM; GI50 (SK-OV-3 ovarian): 8.75 µM; TGI (SK-OV-3 ovarian): 27.5 µM; GI50 (NCI-H23 lung): 2 µM; TGI (NCI-H23 lung): 4.49 µM; GI50 (U251 CNS): 1.88 µM; TGI (U251 CNS): 3.82 µM; GI50 (SK-MEL-5 melanoma): 2.98 µM; TGI (SK-MEL-5 melanoma): 11.1 µM; GI50 (ACHN renal): 2.4 µM; TGI (ACHN renal): 6.78 µM; GI50 (IGROV1 ovarian): 8.27 µM; TGI (IGROV1 ovarian): 21.5 µM; GI50 (HS 578T breast): 2.62 µM; TGI (HS 578T breast): 9.96 µM; GI50 (SK-MEL-2 melanoma): 2.98 µM; TGI (SK-MEL-2 melanoma): 11.1 µM; GI50 (SNB-75 CNS): 2.39 µM; TGI (SNB-75 CNS): 8.71 µM; GI50 (KM12 colon): 6 µM; TGI (KM12 colon): 31.8 µM; GI50 (MDA-MB-231 breast): 1.76 µM; TGI (MDA-MB-231 breast): 3.59 µM; GI50 (RPMI-8226 leukemia): 5.05 µM; TGI (RPMI-8226 leukemia): 26.3 µM; GI50 (HOP-92 NSCLC): 2.43 µM; TGI (HOP-92 NSCLC): 9.03 µM; GI50 (SNB-19 CNS): 3.76 µM; TGI (SNB-19 CNS): 14.3 µM; GI50 (UACC-62 melanoma): 1.84 µM; TGI (UACC-62 melanoma): 4.61 µM; GI50 (PC-3 prostate): 2.1 µM; TGI (PC-3 prostate): 5.78 µM; GI50 (T-47D breast): 3.78 µM; TGI (T-47D breast): 20.2 µM; GI50 (OVCAR-4 ovarian): 4.81 µM; TGI (OVCAR-4 ovarian): 19.3 µM; GI50 (K-562 leukemia): 2.49 µM; TGI (K-562 leukemia): 11.8 µM; GI50 (RXF 393 renal): 1.98 µM; TGI (RXF 393 renal): 5.15 µM; GI50 (SW-620 colon): 4.3 µM; TGI (SW-620 colon): 28.5 µM; GI50 (NCI-H522 lung): 1.84 µM; TGI (NCI-H522 lung): 5.01 µM; GI50 (TK-10 renal): 16.5 µM; TGI (TK-10 renal): 33.4 µM; GI50 (OVCAR-3 ovarian): 3.72 µM; TGI (OVCAR-3 ovarian): 11.7 µM; GI50 (M14 melanoma): 3.06 µM; TGI (M14 melanoma): 11.1 µM; GI50 (SR leukemia): 1.67 µM; TGI (SR leukemia): > 100 µM; GI50 (CAKI-1 renal): 2.34 µM; TGI (CAKI-1 renal): 7.01 µM; GI50 (SF-295 CNS): 1.93 µM; TGI (SF-295 CNS): 4.99 µM; GI50 (LOX IMVI melanoma): 1.42 µM; TGI (LOX IMVI melanoma): 2.8 µM; GI50 (DU-145 prostate): 4.56 µM; TGI (DU-145 prostate): 19.3 µM; GI50 (HOP-62 NSCLC): 1.81 µM; TGI (HOP-62 NSCLC): 3.96 µM; GI50 (MDA-MB-435): 3.84 µM; TGI (MDA-MB-435): 14.3 µM; GI50 (NCI-H460 lung): 2.34 µM; TGI (NCI-H460 lung): 6.32 µM; GI50 (UO-31 renal): 4.03 µM; TGI (UO-31 renal): 16.5 µM; GI50 (A549 NSCLC): 1.79 µM; TGI (A549 NSCLC): 3.95 µM; GI50 (HL-60(TB) leukemia): 2.87 µM; TGI (HL-60(TB) leukemia): 11.5 µM; GI50 (SF-539 CNS): 1.65 µM; TGI (SF-539 CNS): 3.08 µM; GI50 (786-0 renal): 2.23 µM; TGI (786-0 renal): 5.5 µM; GI50 (NCI/ADR-RES ovarian): 4.93 µM; TGI (NCI/ADR-RES ovarian): 30.3 µM; GI50 (HCT-15 colon): 2.94 µM; TGI (HCT-15 colon): 13.6 µM; GI50 (A498 renal): 17.3 µM; TGI (A498 renal): 34.3 µM; GI50 (CCRF-CEM leukemia): 2.31 µM; TGI (CCRF-CEM leukemia): 10.4 µM; GI50 (HCC-2998 colon): 15.3 µM; TGI (HCC-2998 colon): 46.5 µM; GI50 (COLO 205 colon): 24.5 µM; TGI (COLO 205 colon): > 100 µM; GI50 (MCF7 breast): 3.02 µM; TGI (MCF7 breast): 12.9 µM; GI50 (EKVX NSCLC): 3.33 µM; TGI (EKVX NSCLC): 14.6 µM; GI50 (BT-549 breast): 2.95 µM; TGI (BT-549 breast): 8.55 µM; GI50 (OVCAR-8 ovarian): 2.17 µM; TGI (OVCAR-8 ovarian): 5.63 µM; GI50 (NCI-H226 lung): 1.62 µM; TGI (NCI-H226 lung): 4.58 µM; GI50 (HT29 colon): 3.42 µM; TGI (HT29 colon): 13.3 µM
